Publication PMC5738391, “Three classes of ligands each bind to distinct sites on the orphan G protein-coupled receptor GPR84” (Scientific Reports, 2017)

How the values were obtained:
Format in all cases: biochemical
[1] = target: GPR84-Cys^352Ile Gαi2 fusion protein (Homo sapiens, UniProt Q9NQS5); experiment: [35S]GTPγS binding, membranes expressing pertussis toxin-resistant GPR84-Cys352Ile Gαi2 fusion; operational model of allosteric modulation
Experimental: The only previous study[3] designed to explore the mode of binding of ligands to GPR84 employed a fusion protein[31],[32] in which the G protein Gαi1 was linked in-frame to the C-terminal tail of GPR84.
Membranes were generated from Flp-In T-REx HEK293 cells treated with 100 ng/mL doxycycline to induce expression of the receptor construct of interest. Cells were washed with ice-cold phosphate-buffered saline, removed from dishes by scraping and centrifuged at 3000 rpm for 5 min at 4 °C. Pellets were resuspended in TE buffer (10 mM Tris-HCl, 0.1 mM EDTA; pH 7.5) containing a protease inhibitor mixture (Roche Applied Science, West Sussex, UK) and homogenized with a 5 ml hand-held homogenizer. This material was centrifuged at 1500 rpm for 5 min at 4 °C and the supernatant was further centrifuged at 50000 rpm for 45 min at 4 °C. The resulting pellet was resuspended in TE buffer and protein content was assessed using a BCA protein assay kit (Pierce, Fisher Scientific, Loughborough, UK).
The reaction was then initiated with addition of [^35S]GTPγS (50 nCi per tube), and the reaction was terminated after 45 minutes incubation at 30 °C by rapid filtration through GF/C glass filters using a 24-well Brandel cell harvester (Alpha Biotech, Glasgow, UK). […] Dried filters were added to 3 mL of Ultima Gold^TM XR (PerkinElmer Life Sciences, Beaconsfield, UK) and [^35S]GTPγS binding was determined by liquid scintillation spectrometry.
To quantify the extent of allosteric interaction between pairs of ligands, data were analysed using an operational model of allosteric modulation described previously. The general version of this model can be depicted by the following equation: E=Em(τA[A](KB+αβ[B])+τB[B]KA)^n/([A]KB+KAKB+[B]KA+α[A][B])^n+(τA[A](KB+αβ[B])+τB[B]KA)^n where, E is the pharmacological effect, [A] and [B] are the orthosteric and allosteric compound concentrations at equilibrium, respectively; KA and KB are the equilibrium dissociation constants of the orthosteric and allosteric ligands respectively, denoting the binding affinities of the two ligands to the receptor; α is the binding cooperativity factor denoting the magnitude and direction of the allosteric effect on binding affinity of the orthosteric agonist to the receptor, β is the activation cooperativity factor representing the measure of the allosteric effect on orthosteric efficacy. τA and τB represent the intrinsic activity of the orthosteric and allosteric ligand, respectively. Em is the maximal possible system response and n denotes the slope factor of the transducer function. In case of global fitting of the allosterism data through this equation, Em and n values were always constrained and other parameters (KA, KB,τA, τB, α, β) were estimated.

[2] = target: T1, Arg^172Ala GPR84-Cys^352Ile Gαi2 fusion protein (Homo sapiens, UniProt Q9NQS5, R172A); experiment: [35S]GTPγS binding, Arg172Ala mutant fusion protein
T1 construct: Cys352Ile Gαi2 (fusion partner, same polypeptide); expressed in transfected cells; host or cells: membranes of Flp-In T-REx 293 cells, doxycycline-induced
T1 sequence (Q9NQS5 2-396 R172A): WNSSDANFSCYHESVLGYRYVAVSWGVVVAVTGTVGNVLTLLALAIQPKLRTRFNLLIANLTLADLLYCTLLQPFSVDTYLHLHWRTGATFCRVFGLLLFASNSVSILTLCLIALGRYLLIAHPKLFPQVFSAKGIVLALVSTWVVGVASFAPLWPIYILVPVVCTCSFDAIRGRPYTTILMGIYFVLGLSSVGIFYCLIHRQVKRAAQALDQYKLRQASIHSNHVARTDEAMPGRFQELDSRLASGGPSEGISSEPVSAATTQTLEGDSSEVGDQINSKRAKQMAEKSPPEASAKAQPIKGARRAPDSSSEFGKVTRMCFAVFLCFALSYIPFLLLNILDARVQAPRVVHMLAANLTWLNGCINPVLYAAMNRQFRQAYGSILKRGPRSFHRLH
From the text: To try to identify how a MCFA might interact with GPR84 we turned to homology modelling studies. Although GPR84 is not closely related to the other GPCRs that respond to either short chain (FFA2, FFA3) or long chain (FFA1, FFA4) fatty acids[8],[9], in each of the other cases the carboxylate of the fatty acid is co-ordinated by one or more arginine residues located at or near the extracellular surface[12]–[14]. […] As we have highlighted recently[9] GPR84 and the β2-adrenoceptor are only distantly related whilst, of the currently available atomic level GPCR structures, the orexin OX1 receptor[34] has highest overall sequence identity (31%) with GPR84. We, therefore, generated and employed a new homology model of GPR84 based on the transmembrane domain architecture of the OX1 receptor (Fig. 6). However, because ECL2 of GPR84 is very similar in sequence to that of rhodopsin (Fig. 6a), with 43% residue identity over this region, we incorporated this knowledge into the modelling process. In the resulting hybrid model (Fig. 6a) Arg^172 within ECL2 is pointing into the potential binding cavity within the helical bundle. This was not the case when Nikaido et al.,[3] employed the β2-adrenoceptor-based model, probably because the ECL2 sequences of the β2-adrenoceptor and GPR84 have no relatedness. […] To assess this we mutated Arg^172 to Ala within the setting of the GPR84-Cys^352Ile Gαi2 fusion protein. […] Equivalent results were obtained in studies in which the Arg^172Ala mutation was introduced into the FLAG-hGPR84-eYFP construct (Fig. 7b).
FLAG-humanGPR84-Gαi2 fusion proteins were constructed by replacing eYFP within the FLAG-humanGPR84-eYFP-pcDNA5/FRT/TO construct with sequence corresponding to Gαi2 or Cys^352Ile Gαi2 using NotI and XhoI restriction enzymes. Site-directed mutagenesis to generate point mutants of GPR84 was performed according to the QuikChange method (Stratagene, Cheshire, UK). The identity of all constructs was verified by nucleotide sequencing.
Initially, 5 μg of generated membrane protein was pre-incubated for 15 min at 25 °C in assay buffer (20 mM HEPES, 5 mM MgCl2; 160 mM NaCl; 1 μM GDP; 0.05% fatty acid-free bovine serum albumin; pH 7.5) containing the indicated ligand concentrations. […] The reaction was then initiated with addition of [^35S]GTPγS (50 nCi per tube), and the reaction was terminated after 45 minutes incubation at 30 °C by rapid filtration through GF/C glass filters using a 24-well Brandel cell harvester (Alpha Biotech, Glasgow, UK). Unbound radioligand was removed from filters by three washes with ice-cold phosphate buffered saline (pH 7.4) and filters were dried for 2–3 h at room temperature. Dried filters were added to 3 mL of Ultima Gold^TM XR (PerkinElmer Life Sciences, Beaconsfield, UK) and [^35S]GTPγS binding was determined by liquid scintillation spectrometry.

[3] = target: T2, Arg^172Lys GPR84-Cys^352Ile Gαi2 fusion protein (Homo sapiens, UniProt Q9NQS5, R172K); experiment: [35S]GTPγS binding, Arg172Lys mutant fusion protein
T2 construct: Cys352Ile Gαi2 (fusion partner, same polypeptide); expressed in transfected cells; host or cells: membranes of Flp-In T-REx 293 cells, doxycycline-induced
T2 sequence (Q9NQS5 2-396 R172K): as the sequence (Q9NQS5 2-396 R172A) above, with A171K counted along it

[4] = target: T3, FLAG-Arg^174Ala hGPR84-eYFP (Homo sapiens, UniProt Q9NQS5, R174A); experiment: [35S]GTPγS binding, Arg174Ala mutant receptor
T3 construct: expressed in transfected cells; host or cells: membranes of Flp-In T-REx 293 cells, doxycycline-induced
T3 sequence (Q9NQS5 whole entry R174A): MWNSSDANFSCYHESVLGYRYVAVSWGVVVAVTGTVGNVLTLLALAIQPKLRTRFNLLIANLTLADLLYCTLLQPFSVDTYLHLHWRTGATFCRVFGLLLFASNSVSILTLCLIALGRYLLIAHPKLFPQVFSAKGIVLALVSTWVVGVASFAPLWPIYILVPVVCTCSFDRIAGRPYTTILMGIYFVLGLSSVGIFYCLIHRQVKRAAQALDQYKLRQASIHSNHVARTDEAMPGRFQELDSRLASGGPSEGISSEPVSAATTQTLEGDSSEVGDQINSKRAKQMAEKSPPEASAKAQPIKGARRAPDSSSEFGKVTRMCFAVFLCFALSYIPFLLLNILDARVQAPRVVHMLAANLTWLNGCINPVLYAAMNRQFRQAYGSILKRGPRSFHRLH

[5] = agonist DIM, modulator compound-1

Sequence of GPR84-Cys^352Ile Gαi2 fusion protein (Q9NQS5 whole entry, the tested form may be a part): as the sequence (Q9NQS5 whole entry R174A) above, with A174R counted along it
Sequence of GPR84-Cys^352Ile Gαi2 fusion protein (P04899 2-355 C352I, further chain): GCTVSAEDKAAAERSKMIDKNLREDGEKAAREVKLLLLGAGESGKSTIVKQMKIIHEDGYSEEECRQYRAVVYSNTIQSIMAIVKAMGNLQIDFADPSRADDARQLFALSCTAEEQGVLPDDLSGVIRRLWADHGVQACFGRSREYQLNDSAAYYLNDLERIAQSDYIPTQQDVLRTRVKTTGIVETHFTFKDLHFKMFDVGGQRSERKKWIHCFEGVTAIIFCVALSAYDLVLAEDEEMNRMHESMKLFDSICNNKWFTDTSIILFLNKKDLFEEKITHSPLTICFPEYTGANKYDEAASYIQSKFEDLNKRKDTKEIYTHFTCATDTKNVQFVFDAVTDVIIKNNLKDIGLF

Row | Structure (SMILES) | increase in potency of DIM to activate GPR84 at high levels of C10 or other MCFAs versus absence of C10 [1] [fold] | logα ([1]; agonist DIM, modulator C-10) | logβ ([1]; agonist DIM, modulator C-10) | logα [1, 5] | logβ [1, 5] | logα ([1]; agonist DIM, modulator embelin) | logβ ([1]; agonist DIM, modulator embelin) | allosteric effect on potency of C10 ([1]; co-addition of increasing concentrations of DIM, pertussis toxin-treated cells) | effect on measured potency of compound-1 and embelin ([1]; increasing concentrations of DIM) | response after pertussis toxin treatment ([1]; pertussis toxin-resistant fusion, pertussis toxin 24 h) | agonist response at Arg172Ala mutant [2] | agonist response at Arg172Lys mutant [3] | effect of Arg174Ala mutation on agonist function or potency [4] | co-addition with compound-1 or embelin, effect on potency [1] | logα ([1]; agonist C-10, modulator DIM) | logβ ([1]; agonist C-10, modulator DIM)
1 | c1ccc2c(Cc3c[nH]c4ccccc34)c[nH]c2c1 [DIM, 3,-3′-diindolylmethane] | ~20 | 1.3 ± 0.1 | 1.2 ± 0.05 | 1.8 ± 0.08 | 1.14 ± 0.03 | 1.12 ± 0.04 | 1.0 ± 0.03 | positive allosteric modulator | enhancing the measured potency | unaffected | retained full activity | without affecting response | did not affect function or potency | – | – | –
2 | CCCCCCCCCC(=O)O [C10, decanoic acid] | – | – | – | – | – | – | – | – | – | – | no response | eliminated response | did not affect function or potency | did not result in modulation of the potency | 1.4 ± 0.1 | 0.4 ± 0.07
